Experimental data published in patent US6110897A, “Antiinflammatory cell adhesion inhibitors” (Glycorex AB, priority 1997, dated 2000).
Like-named read-outs stand apart in the source and are kept apart here.

Legend:
[1] = tested on: E-selectin-IgG fusion protein; experiment: Inhibition of HL60 cell adhesion to recombinant E-selectin-IgG fusion protein; assay type: cell-based, human
Method: (§1) These recombinant proteins contain the signal sequence, the lectin-like domain, the EGF (epidermal growth factor) repeat domain and six (E-selectin) and two (P-selectin) of the CR-like (complement regulatory) domains. […] Adhesion of labelled HL60 tumor cells was quantitatively measured in a cytofluoro-meter. The specific cell binding in the presence of inhibitors (I) was calculated compared with nonspecific binding to the CD4-IgG fusion protein. […] Genetic constructs for expression of extracellular portions of the human selectins E and P, joined to human immunoglobulin heavy chain hinge, CH2 and CH3 regions were obtained from B. Seed, Massachusetts General Hospital, Boston, U.S.A. […] CD4-IgG served as a negative control. Recombinant proteins were expressed as soluble proteins after DEAE/dextran facilitated plasmid DNA trans-fection into COS cells according to standard procedures. […] After washing with PBS, plates were blocked for 0.5 h with 150 μl/well of 1% BSA in PBS. […] After one PBS wash, 40 μl/well binding buffer (50 mM Hepes, pH 7.5, 100 mM NaCl, 100 μM MgCl2. 100 μM MnCl2, 100 μM CaCl2, 1 mg/ml BSA) were added together with test compounds or antibodies (see below). Parallel to the preparation of the plates, HL60 cells, grown in DMEM medium with 20% FCS, were washed two times with PBS before incubation for 20 min in Fc-receptor blocking buffer at RT. […] The amount of bound cells was quantitated in a cytofluorometer (CytoFluor 2300, Millipore, Bedford, U.S.A.). Specific cell binding was calculated by subtraction of the signals in wells coated with CD4-IgG (nonspecific binding) from the signals in wells coated with selectin-IgG. […] IC50 values were determined according to the four parameter logistics model. Each IC50 determination was repeated on another day at least once.

[2] = target: T1, P-selectin-IgG fusion protein (Homo sapiens, UniProt P16109); experiment: Inhibition of HL60 cell adhesion to recombinant P-selectin-IgG fusion protein; assay type: cell-based; settings: for IC50: concentration to block adhesion of 50% of HL60 cells compared with negative control
T1 construct: the lectin-like domain, the EGF repeat domain and six (E-selectin) and two (P-selectin) of the complement regulatory-like domains; made in house; host or cells: COS cells (DEAE/dextran plasmid transfection; culture supernatant; genetic constructs from B. Seed, Massachusetts General Hospital)
T1 sequence (P16109 with tags, fused parts or gaps limits assumed): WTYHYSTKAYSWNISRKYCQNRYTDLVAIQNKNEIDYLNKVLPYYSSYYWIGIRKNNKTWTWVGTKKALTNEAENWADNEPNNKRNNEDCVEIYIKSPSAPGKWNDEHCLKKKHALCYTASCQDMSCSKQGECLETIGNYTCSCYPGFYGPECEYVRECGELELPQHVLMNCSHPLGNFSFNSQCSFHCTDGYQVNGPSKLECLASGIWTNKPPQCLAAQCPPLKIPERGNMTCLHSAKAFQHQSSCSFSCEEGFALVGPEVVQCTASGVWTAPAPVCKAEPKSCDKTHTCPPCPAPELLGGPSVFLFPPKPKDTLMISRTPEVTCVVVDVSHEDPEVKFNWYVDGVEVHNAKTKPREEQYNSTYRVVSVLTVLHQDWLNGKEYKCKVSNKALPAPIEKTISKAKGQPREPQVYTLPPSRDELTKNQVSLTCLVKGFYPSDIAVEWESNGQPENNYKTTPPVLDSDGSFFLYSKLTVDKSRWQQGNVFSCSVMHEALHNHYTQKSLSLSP
Method: as §1

E- and P-selectins = experiment: Selectin cell adhesion assays, E- and P-selectin taken together (statements in words); assay type: cell-based, human; settings: removal of the acetamido or acetyl group, compared with II-1
Source text: Primary assays for investigation of the action of compounds (I) on cell adhesion to recombinant soluble selectin fusion proteins:
The preparation of soluble E- and P-selectin-IgG fusion proteins, composed of the extracellular portions of human selectins E and P and the human immunoglobulin (IgG) heavy chain hinge, CH2 and CH3 regions, has been described in Cell 1991, 67, 35. These recombinant proteins contain the signal sequence, the lectin-like domain, the EGF (epidermal growth factor) repeat domain and six (E-selectin) and two (P-selectin) of the CR-like (complement regulatory) domains. […] Adhesion of labelled HL60 tumor cells was quantitatively measured in a cytofluoro-meter. The specific cell binding in the presence of inhibitors (I) was calculated compared with nonspecific binding to the CD4-IgG fusion protein.
The activity of compounds (I), (II) and (III) was measured in adhesion assays as the inhibition of the binding of promyelocytic leukemia HL60 cells (ATCC CRL 1964) to recombinant solid phase bound selectin-fusion proteins. […] Recombinant proteins were expressed as soluble proteins after DEAE/dextran facilitated plasmid DNA trans-fection into COS cells according to standard procedures. […] The amount of bound cells was quantitated in a cytofluorometer (CytoFluor 2300, Millipore, Bedford, U.S.A.). […]

E-selectin-Ig = settings: cited from earlier work
[3] = concentration to block adhesion of 50% of HL60 cells compared with negative control; read-out: E-selectin IC50

IC50 [2]	IC50 [1, 3]	Structure (SMILES)	improvement of the E-selectin IC50 over II-1 ([1]; I-1 over reference compound II-1)	IC50 ([1]; read-out: E-selectin IC50; concentration to block adhesion of 50% of HL60 cells compared with negative control)	enhancement of binding affinity to P-selectin (factor) ([2]; fully deacetylated I-1 compared with II-1)	inhibitory potency relative to II-1 (E- and P-selectins)	enhanced inhibitory potency compared to sLe^X (fold) (E-selectin-Ig; cell-free ELISA, E-selectin-Ig competitive binding)	IC50 (E-selectin-Ig; cell-free system, read-out: IC50, E-selectin-Ig competitive binding)
2000 µM	1000 µM	CC(=O)NC1C(O)CC(OC2C(O)C(CO)OC(OC3C(CO)OC(OCCCCCCN)C(NC(C)=O)C3OC3OC(C)C(O)C(O)C3O)C2O)(C(=O)O)OC1C(O)C(O)CO (centres unmarked) [II-1]	–	–	–	–	–	–
700 µM	700 µM	CC(=O)NC1C(OCCCCCCN)OC(CO)C(OC2OC(CO)C(O)C(OC3(C(=O)O)CC(O)CC(C(O)C(O)CO)O3)C2O)C1OC1OC(C)C(O)C(O)C1O (centres unmarked) [III-1]	–	–	–	only slightly improved	–	–
1000 µM	900 µM	CC(=O)NC1C(OCCCCCCN)OC(CO)C(OC2OC(CO)C(O)C(OC3(C(=O)O)CC(O)C(N)C(C(O)C(O)CO)O3)C2O)C1OC1OC(C)C(O)C(O)C1O (centres unmarked) [III-2]	–	–	–	only slightly improved	–	–
–	–	CC(=O)NC1C(O)CC(OC2C(O)C(CO)OC(OC3C(CO)OC(O)C(N)C3OC3OC(C)C(O)C(O)C3O)C2O)(C(=O)O)OC1C(O)C(O)CO (centres unmarked) [sLe^X (GlcNH2)]	–	–	–	–	5 fold	77 µM

Structure (SMILES)	IC50 [2]	IC50 [1, 3]	improvement of the E-selectin IC50 over II-1 ([1]; I-1 over reference compound II-1)	IC50 ([1]; read-out: E-selectin IC50; concentration to block adhesion of 50% of HL60 cells compared with negative control)	enhancement of binding affinity to P-selectin (factor) ([2]; fully deacetylated I-1 compared with II-1)	inhibitory potency relative to II-1 (E- and P-selectins)	enhanced inhibitory potency compared to sLe^X (fold) (E-selectin-Ig; cell-free ELISA, E-selectin-Ig competitive binding)	IC50 (E-selectin-Ig; cell-free system, read-out: IC50, E-selectin-Ig competitive binding)
CC1OC(OC2C(N)C(OCCCCCCN)OC(CO)C2OC2OC(CO)C(O)C(OC3(C(=O)O)CC(O)C(N)C(C(O)C(O)CO)O3)C2O)C(O)C(O)C1O [Compound I-1, 2-Amino-4-O-[3-O-[5-amino-3,5-dideoxy-D-glycero-α-D-galactononulopyranosyl]-β-D-galactopyranosyl]-1-[6-aminohexyl]-2-deoxy-3-O-[α-L-fucopyranosyl]-β-D-glycopyranose]	160 µM	–	significant improvement	270 µM	12.5	–	–	–
